For test [1], the target named is T1, full length (FL) LXRβ (Homo sapiens, UniProt P55055, DUP175-175).
T1 construct: the full length (FL) proteins of LXRα (amino acids 1-447); NP005684; NP009052; expressed in transfected cells; host or cells: HEK293
T1 sequence (P55055 with tags, fused parts or gaps DUP175-175): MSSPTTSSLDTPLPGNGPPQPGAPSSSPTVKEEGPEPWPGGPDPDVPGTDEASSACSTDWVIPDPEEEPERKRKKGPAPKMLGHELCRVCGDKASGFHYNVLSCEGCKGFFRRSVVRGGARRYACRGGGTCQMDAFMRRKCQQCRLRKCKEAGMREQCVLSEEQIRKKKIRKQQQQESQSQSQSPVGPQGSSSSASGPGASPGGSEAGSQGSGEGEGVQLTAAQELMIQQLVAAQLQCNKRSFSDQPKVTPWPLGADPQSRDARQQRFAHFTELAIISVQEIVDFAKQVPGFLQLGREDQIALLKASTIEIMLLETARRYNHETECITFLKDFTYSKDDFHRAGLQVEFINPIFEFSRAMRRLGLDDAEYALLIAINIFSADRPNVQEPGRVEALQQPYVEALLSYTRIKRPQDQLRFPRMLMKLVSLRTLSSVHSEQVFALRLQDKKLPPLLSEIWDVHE
Nature of the test: LXR Gal4 reporter transient transfection assay (FL-M2H Gal4β). The format is cell-based. The conditions noted are these: HEK293 cells, full length LXRβ; read-out: FL-M2H Gal4β (EC50 range). On the procedure: (§1) The tested compounds were usually dissolved, tested and stored as 20 mM stock solutions in DMSO. Since sulfonyl acetic acid derivatives tend to decarboxylate under these conditions, these stock solutions were prepared, tested and stored as 20 mM DMSO stock solutions containing 100 mM trifluoroacetic Acid (5 equivalents). Sulfonyl acetic acid derivatives are shelf stable as solid at rt for long time as reported by Griesbrecht et al. (Synlett 2010:374) or Faucher et al. (J. Med. Chem. 2004; 47:18).
LXR Gal4 Reporter Transient Transfection Assays
LXRα and LXRβ activity status was determined via detection of interaction with coactivator and corepressor proteins in mammalian two-hybrid experiments (M2H). For this, via transient transfection the full length (FL) proteins of LXRα (amino acids 1-447; NP005684; SEQ ID NO:1) or LXRβ-(amino acids 1-461; NP009052; SEQ ID NO:2) or the ligand-binding domains (LBD) of LXRα (amino acids 155-447 SEQ ID NO:3) or LXRβ (amino acids 156-461; SEQ ID NO:4) were expressed from pCMV-AD (Stratagene) as fusions to the transcriptional activation domain of NFkB. As cofactors, domains of either the steroid receptor coactivator 1 (SRC1; amino acids 552-887; SEQ ID NO:5) or of the corepressor NCoR (amino acids 1906-2312; NP006302; SEQ ID NO:6) were expressed as fusions to the DNA binding domain of the yeast transcription factor GAL4 (from pCMV-BD; Stratagene). Interaction was monitored via activation of a coexpressed Firefly Luciferase Reporter gene under control of a promoter containing repetitive GAL4 response elements (vector pFRLuc; Stratagene). Transfection efficiency was controlled via cotransfection of constitutively active pRL-CMV Renila reniformis luciferase reporter (Promega). HEK293 cells were grown in minimum essential medium (MEM) with 2 mM L-glutamine and Earle's balanced salt solution supplemented with 8.3% fetal bovine serum, 0.1 mM non-essential amino acids, 1 mM sodium pyruvate, at 37° C. in 5% CO2. 3.5×10^4 cells/well were plated in 96-well cell culture plates in growth medium supplemented with 8.3% fetal bovine serum for 16-20 h to ˜90% confluency. For transfection, medium was taken off and LXR and cofactor expressing plasmids as well as the reporter plasmids are added in 30 μL OPTIMEM/well including polyethylene-imine (PEI) as vehicle. Typical amounts of plasmids transfected/well: pCMV-AD-LXR (5 ng), pCMV-BD-cofactor (5 ng), pFR-Luc (100 ng), pRL-CMV (0.5 ng). Compound stocks were prepared in DMSO, prediluted in MEM to a total volume of 120 μL, and added 4 h after addition of the transfection mixture (final vehicle concentration not exceeding 0.2%). Cells were incubated for additional 16 h, lysed for 10 min in 1× Passive Lysis Buffer (Promega) and Firefly and Renilla luciferase activities were measured sequentially in the same cell extract using buffers containing D-luciferine and coelenterazine, respectively. Measurements of luminescence were done in a BMG-luminometer.

The target in test [2] is T2, LXRβ ligand-binding domain (Homo sapiens, UniProt P55055, DUP175-175).
T2 construct: amino acids 156-461; NP009052; made in house; host or cells: E. coli
T2 sequence (P55055 with tags, fused parts or gaps DUP175-175 limits assumed): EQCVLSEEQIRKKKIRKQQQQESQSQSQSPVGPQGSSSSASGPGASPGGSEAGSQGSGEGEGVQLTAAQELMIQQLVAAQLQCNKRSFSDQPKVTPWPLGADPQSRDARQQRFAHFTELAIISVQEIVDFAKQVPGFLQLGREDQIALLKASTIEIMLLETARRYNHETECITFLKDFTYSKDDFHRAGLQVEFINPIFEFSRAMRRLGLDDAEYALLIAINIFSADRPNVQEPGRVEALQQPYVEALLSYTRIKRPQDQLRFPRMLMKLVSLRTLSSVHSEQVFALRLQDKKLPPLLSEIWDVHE
The experiment in a line: TR-FRETβ activity assay (NCoA3 coactivator peptide recruitment). The format is biochemical. The conditions noted are these: TR-FRET, 1 μM 24(S)-25-epoxycholesterol prestimulation; read-out: FRETβ (EC50 range). How it is done:
as §1
Recombinant GST-LXRPβ ligand-binding domain (LBD; amino acids 156-461; NP009052; SEQ ID NO:4) was expressed in E. coli and purified via gluthatione-sepharose affinity chromatography. N-terminally biotinylated NCoA3 coactivator peptide (SEQ ID NO:7) was chemically synthesized (Eurogentec). Assays were done in 384 well format (final assay volume of 25 μL/well) in a Tris/HCl buffer (pH 6.8) containing KCl, bovine serum albumin, Triton-X-100 and 1 μM 24(S)-25-epoxycholesterol as LXR-prestimulating agonist. Assay buffer was provided and test articles (potential LXR inverse agonists) were titrated to yield final assay concentrations of 50 μM, 16.7 μM, 5.6 μM, 1.9 μM, 0.6 μM, 0.2 μM, 0.07 μM, 0.02 μM, 0.007 μM, 0.002 μM with one vehicle control. Finally, a detection mix was added containing anti GST-Tb cryptate (CisBio; 610SAXLB) and Streptavidin-XL665 (CisBio; 610SAXLB) as fluorescent donor and acceptor, respectively, as well as the coactivator peptide and LXRβ-LBD protein (SEQ ID NO:4). The reaction was mixed thoroughly, equilibrated for 1 h at 4° C. and vicinity of LXRβ and coactivator peptide was detected by measurement of fluorescence in a VictorX4 multiplate reader (PerkinElmer Life Science) using 340 nm as excitation and 615 and 665 nm as emission wavelengths. Assays were performed in triplicates.
Final Assay Concentrations of Components:
240 mM KCl, 1 μg/μL BSA, 0.002% Triton-X-100, […] anti GST-Tb cryptate, 2.5 ng/μL Streptavidin-XL665, coactivator peptide (400 nM), LXRβ protein (530 μg/mL, i.e. 76 nM).
(In general: Time-resolved FRET reads energy transfer from a long-lived donor to a nearby acceptor.)

As usually defined, the EC50 is the concentration giving half of the maximal effect. In the case of `Cc1ccc(S(=O)(=O)n2c(-c3cccc(-c4ccc(C(N)=O)cc4)c3)c(-c3ccsc3C#N)c3cc(F)ccc32)cc1` [6/2], the results for the half-maximal effective concentration (EC50) in test [1] and in test [2] were below 100 nM and 100 to 1000 nM, respectively.

As to `N#Cc1sccc1-c1c(-c2ccccc2)n(S(=O)(=O)c2ccc(-c3cccc(C(=O)O)c3)cc2)c2ccccc12` [27/2], the EC50 in test [2] was in the range of 1000 to 10000 nM.

For the compound `N#Cc1sccc1-c1c(-c2cccs2)n(S(=O)(=O)c2ccc(Cl)cc2)c2cc(C(=O)O)ccc12` [Example 19, 1-((4-Chlorophenyl)sulfonyl)-3-(2-cyanothiophen-3-yl)-2-(thiophen-2-yl)-1H-indole-6-carboxylic Acid], the half-maximal effective concentration (EC50) in test [2] was above 10000 nM. In the case of `Cc1ccc(S(=O)(=O)n2c(-c3cccc(-c4ccc(C(=O)O)cc4Cl)c3)c(-c3ccccc3C#N)c3cc(F)ccc32)cc1` [Example 11, 2-Chloro-3′-(3-(2-cyanophenyl)-5-fluoro-1-tosyl-1H-indol-2-yl)-[1,1′-biphenyl]-4-carboxylic acid], the EC50 in test [1] and in test [2] was below 100 nM throughout. As for `N#Cc1sccc1-c1c(-c2ccccc2)n(S(=O)(=O)c2ccc(CC(=O)O)s2)c2ccccc12` [27/3], the EC50 in test [2] is above 10000 nM. On to `Cc1ccc(S(=O)(=O)n2c(-c3cccc(-c4ccc(CN(C)C)cc4Cl)c3)c(-c3ccsc3C#N)c3cc(F)ccc32)cc1` [Example 2, 3-(2-(2′-Chloro-4′-((dimethylamino)methyl)-[1,1′-biphenyl]-3-yl)-5-fluoro-1-tosyl-1H-indol-3-yl)thiophene-2-carbonitrile], for which the 50% effective concentration (EC50) in test [1] is below 100 nM; in test [2] it was 100 to 1000 nM. On the same counts, the results for `Cc1ccc(S(=O)(=O)n2c(-c3cccc(-c4ccc(-c5nnn[nH]5)cc4Cl)c3)c(-c3ccsc3C#N)c3cc(F)ccc32)cc1` [Example 37, 3-(2-(2′-Chloro-4′-(1H-tetrazol-5-yl)-[1,1′-biphenyl]-3-yl)-5-fluoro-1-tosyl-1H-indol-3-yl)thiophene-2-carbonitrile] are below 100 nM and 100 to 1000 nM.

`Cc1cccc(C#N)c1-c1c(-c2cccc(-c3ccc(C(=O)O)cc3Cl)c2)n(S(=O)(=O)c2ccc(C(F)F)cc2)c2ccc(F)cc12` [11/36, 2-chloro-3′-(3-(2-cyano-6-methylphenyl)-1-((4-(difluoro-methyl)phenyl)sulfonyl)-5-fluoro-1H-indol-2-yl)-[1,1′-biphenyl]-4-carboxylic Acid]: the EC50 in test [1] and in test [2] was below 100 nM each time. Take `Cn1cnc(S(=O)(=O)n2c(-c3cccc(C4CC4C(=O)O)c3)c(-c3ccsc3C#N)c3ccccc32)c1` (centres unmarked) [30/10]: the concentration for a half-maximal effect (EC50) in test [2] was above 10000 nM. In the case of `Cc1ccc(S(=O)(=O)n2c(-c3cccc(-c4cncc(S(=O)(=O)CC(=O)O)c4)c3)c(-c3ccsc3C#N)c3ccccc32)cc1` [Example 5, 2-((5-(3-(3-(2-Cyanothiophen-3-yl)-1-tosyl-1H-indol-2-yl)phenyl)pyridin-3-yl)sulfonyl)acetic Acid], the EC50 in test [1] was 1000 to 10000 nM; in test [2], 100 to 1000 nM.

For the compound `Cc1ccc(S(=O)(=O)n2c(-c3cccc(-c4ccc(C(=O)NCCS(=O)(=O)O)cc4Cl)c3)c(-c3ccsc3C#N)c3cc(F)ccc32)cc1` [Example 10, 2-(2-Chloro-3′-(3-(2-cyanothiophen-3-yl)-5-fluoro-1-tosyl-1H-indol-2-yl)-[1,1′-biphenyl]-4-carboxamido)ethane-1-sulfonic Acid], the 50% effective concentration (EC50) in test [1] and in test [2] was 100 to 1000 nM throughout. Regarding `N#Cc1cccc(C#N)c1-c1c(-c2cccc(-c3ccc(C(=O)O)cc3)c2)n(S(=O)(=O)c2ccc(C(F)F)cc2)c2ccc(F)cc12` [11/50], the EC50 in test [1] and in test [2] was below 100 nM in each case.

As to `N#Cc1sccc1-c1c(-c2ccccc2)n(S(=O)(=O)c2ccc(CC(=O)O)cc2)c2ccccc12` [27/1], the concentration giving a half-maximal response (EC50) in test [2] lay within 1000 to 10000 nM. For the compound `Cc1ccc(S(=O)(=O)n2c(-c3cccc(S(=O)(=O)CC(=O)O)c3)c(-c3ccsc3C#N)c3ccccc32)cc1` [3/15], the EC50 in test [2] lay within 1000 to 10000 nM.

With `N#Cc1sccc1-c1c(-c2cccs2)n(S(=O)(=O)c2ccc(Cl)cc2)c2cc(OCC(=O)O)ccc12` [15/3], in test [2], the concentration giving a half-maximal response (EC50) was above 10000 nM.

The record behind these values is patent publication US11618747B2, “LXR modulators with bicyclic core moiety” (OrsoBio, Inc., priority 2018, dated 2023).
